{
  "source": "patent US20260042801A1",
  "about": "“COMPOSITIONS AND METHODS FOR DYE-BOUND CYCLIZED PEPTIDES FOR MEDICAL USE” (The Texas A&M University System, priority 2022, published 2026)",
  "key": {"TrkB": {"target": "T1, TrkB (Homo sapiens, UniProt Q16620)", "T1 construct": "expressed in transfected cells; host or cells: HEK293 (TrkB-HEK293)", "T1 sequence (Q16620 32-822, species assumed)": "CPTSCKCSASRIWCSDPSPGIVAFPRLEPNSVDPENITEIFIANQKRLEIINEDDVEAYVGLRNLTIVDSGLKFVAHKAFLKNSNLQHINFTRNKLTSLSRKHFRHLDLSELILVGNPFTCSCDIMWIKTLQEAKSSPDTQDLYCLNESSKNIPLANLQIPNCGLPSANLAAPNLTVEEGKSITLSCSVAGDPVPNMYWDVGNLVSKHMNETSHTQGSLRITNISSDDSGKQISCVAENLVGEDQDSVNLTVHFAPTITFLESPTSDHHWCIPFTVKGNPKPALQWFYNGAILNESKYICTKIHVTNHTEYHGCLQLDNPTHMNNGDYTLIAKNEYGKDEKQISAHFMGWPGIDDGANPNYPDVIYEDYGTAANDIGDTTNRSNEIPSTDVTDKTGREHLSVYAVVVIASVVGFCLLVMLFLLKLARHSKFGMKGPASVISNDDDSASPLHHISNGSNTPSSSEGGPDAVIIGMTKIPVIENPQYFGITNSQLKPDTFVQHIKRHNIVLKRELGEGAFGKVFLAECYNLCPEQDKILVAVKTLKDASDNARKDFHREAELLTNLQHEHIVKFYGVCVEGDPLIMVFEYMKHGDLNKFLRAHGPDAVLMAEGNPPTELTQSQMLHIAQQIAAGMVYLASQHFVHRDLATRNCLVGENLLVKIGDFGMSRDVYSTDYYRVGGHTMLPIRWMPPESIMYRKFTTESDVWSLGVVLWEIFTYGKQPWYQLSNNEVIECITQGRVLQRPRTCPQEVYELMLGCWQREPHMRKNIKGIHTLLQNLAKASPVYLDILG", "experiment": "Cell-associated fluorescence saturation binding, TrkB-HEK293 cells", "settings": "2.5 h, with and without 0.6 nM BDNF", "method": "(§1) FIG. 2: 5c(i) binds to TrkB and TrkC receptors. Transfected cell lines that are Trk positive cells (TrkB-HEK293 and TrkC-NIH/3T3) and non-transfected cell lines that are Trk negative cells (HEK293 and NIH/3T3) were seeded approximately 2,000 cells/well in a 96-well plate and incubated for 24 hours. The cells were treated with a serial dilution of compound (0, 10, 25, 50, 100, 200, 500, and 1000 nM) in serum-free media (SFM) with and without A) 0.6 nM of BDNF (TrkB-HEK293 and HEK293) and B) 0.2 nM of NT-3 (TrkC-NIH/3T3 and NIH/3T3) for 2.5 h. After that, the cells were washed with PBS once to remove unbound compounds and dissolved in 1% (w/v) aqueous sodium dodecyl sulfate. Cell-associated fluorescence was then determined by measuring the emission of the resulting solution upon λex (540/25 nm) and λem (620/40 nm) using Agilent BioTek Synergy H4 Hybrid Microplate Reader. Kd was calculated by GraphPad Prism 9 using Binding saturation (One site—Specific binding).\n(§2) Transfected cell lines that are Trk positive cells (TrkA-HeLa, TrkB-HEK293, and TrkC-NIH/3T3) and non-transfected cell lines that are Trk negative cells (HeLa, HEK293, and NIH/3T3) were seeded at 2,000 cells/well in a 96-well plate (0.32 cm^2 growth area) and incubated inside a 5% CO2 incubator at 37° C. for 24 hours. […] The dissociation constant (Kd) was calculated using binding saturation (One site—Specific binding)."}, "TrkC": {"target": "T2, TrkC (Homo sapiens, UniProt Q16288)", "T2 construct": "expressed in transfected cells; host or cells: NIH/3T3 (TrkC-NIH/3T3)", "T2 sequence (Q16288 32-839, species assumed)": "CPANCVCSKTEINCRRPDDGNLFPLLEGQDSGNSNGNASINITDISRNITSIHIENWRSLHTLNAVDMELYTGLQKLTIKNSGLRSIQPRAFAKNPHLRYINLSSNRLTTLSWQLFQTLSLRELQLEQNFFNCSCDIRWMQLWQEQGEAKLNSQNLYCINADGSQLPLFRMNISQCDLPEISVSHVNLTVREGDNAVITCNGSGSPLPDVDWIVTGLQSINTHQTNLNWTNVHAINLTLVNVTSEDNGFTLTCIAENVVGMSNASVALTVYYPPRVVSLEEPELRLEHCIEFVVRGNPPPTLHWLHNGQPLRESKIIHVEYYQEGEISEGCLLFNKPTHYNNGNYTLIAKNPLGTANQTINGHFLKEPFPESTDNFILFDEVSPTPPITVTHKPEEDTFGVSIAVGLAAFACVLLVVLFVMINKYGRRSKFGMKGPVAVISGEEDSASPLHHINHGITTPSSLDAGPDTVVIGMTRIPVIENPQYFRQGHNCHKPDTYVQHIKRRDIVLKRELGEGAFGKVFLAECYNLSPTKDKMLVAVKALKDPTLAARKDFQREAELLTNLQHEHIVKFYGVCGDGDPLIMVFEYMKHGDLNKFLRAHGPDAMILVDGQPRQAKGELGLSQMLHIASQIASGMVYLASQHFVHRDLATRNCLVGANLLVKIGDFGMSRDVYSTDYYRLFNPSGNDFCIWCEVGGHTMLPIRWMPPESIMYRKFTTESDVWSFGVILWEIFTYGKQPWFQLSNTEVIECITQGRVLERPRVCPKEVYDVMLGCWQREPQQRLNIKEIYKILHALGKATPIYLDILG", "experiment": "Cell-associated fluorescence saturation binding, TrkC-NIH/3T3 cells", "settings": "2.5 h, with and without 0.2 nM NT-3", "method": "as §1, §2"}, "[1]": {"system": "cells lacking TrkB/TrkC receptors", "experiment": "Binding and activity in Trk negative cells (HEK293 and NIH/3T3)", "settings": "non-transfected HEK293 and NIH/3T3", "method": "as §1, §2"}, "GSK-3β": {"system": "GSK-3β", "experiment": "Astrocyte GSK-3β western blot", "type": "cell-based, mouse", "settings": "astrocytes from 6-month-old male mice, 5 μM, 3 days, cell lysate", "method": "(§3) FIGS. 4A-4D: 5c(i) induces Synapsin I production and reduces C3 and GSK-3s expression from astrocytes promoting neuron survival and neurite growth. Primary adult cortical astrocytes from 6-month-old male mice were incubated with 5 μM 5c(i) for 3 days. Graph represents mean±SEM of percent change in fluorescent intensity (Synapsin I and C3) or chemiluminescence (GSK-3β) relative to Vehicle (4A and 4D). Images represent the 4B) Vehicle and 4C) 5 μM 5c(i) treated groups stained with Synapsin I and DAPI. D) Cortical astrocytes from 6-month-old male mice were plated and treated with 5c(i) or Vehicle for 2 days. Cells were then washed and cortical neurons from 6-month-old male mice were added on top of the astrocytes. […] Scale bar=50 μm.\n(§4) To determine if 5c(i) can modulate astrocytes, adult astrocytes from 6-month-old male mice were treated with 5c(i) for 3 days and stained with Synapsin I and C3 to measure changes in fluorescent intensity or western blot was conducted on the cell lysate to assess changes in GSK-3β expression (FIG. 4). […] To determine if 5c(i) treated astrocytes can directly benefit neuronal recovery, astrocytes were cultured with 5c(i) for 2 days before removing 5c(i) from the culture and plating adult neurons on top of the astrocytes for 2DIV, resulting in increased neuron survival and neurite growth. […]"}, "[2]": {"system": "adult cortical neurons on astrocytes", "experiment": "Neurons plated on 5c(i)-pretreated astrocytes", "type": "cell-based, mouse", "settings": "astrocytes cultured with 5c(i) 2 days, 5c(i) removed, neurons 2DIV", "method": "as §3, §4"}, "[3]": {"experiment": "Blood-brain and blood-spinal cord barrier penetration after IP administration", "type": "in vivo", "settings": "uninjured mouse, IP 60 mg/kg, 1 hour, intrinsic fluorescence", "method": "FIG. 6: 5c(i) penetrates the blood-brain and -spinal cord barriers. 4-month-old uninjured female mouse was IP administered 60 mg/kg 5c(i). The mouse was euthanized 1 hour after 5c(i) administration and perfused with PFA. The spinal cord was dissected and sectioned sagittal at 25 μm and stained with NeuN and DAPI. The brain was dissected and sectioned coronal at 50 μm and stained with GFAP and DAPI. 5c(i) was identified through its intrinsic fluorescence. Scale bar=100 μm.\nThis is highly significant as most drugs cannot penetrate the central nervous system (CNS), resulting in very costly late-stage failures in CNS drug development^94. 5c(i) therefore in specific embodiments can cross the BBB and target the brain, such as through IP administration, for indications relating to brain function, such as AD and stroke. 5c(i) has even higher potential for penetrating the CNS after SCI when permeability is increased^95-97."}},
  "data": [
    {"substance": "C-DIRG-C BODIPY® (fluorescent dye) [5c(i)]", "values": [
      {"measurement": "affinity for TrkB (Kd)", "setting": "TrkB", "result": "low nanomolar affinity"},
      {"measurement": "affinity for TrkC (Kd)", "setting": "TrkC", "result": "low nanomolar affinity"},
      {"measurement": "binding and biological activity in cells lacking TrkB/TrkC receptors", "setting": "[1]", "result": "lack of binding and biological activity"},
      {"measurement": "GSK-3β expression", "setting": "GSK-3β", "result": "reduction"},
      {"measurement": "neurite growth on pretreated astrocytes", "setting": "[2]", "result": "increased"},
      {"measurement": "neuron survival on pretreated astrocytes", "setting": "[2]", "result": "increased"},
      {"measurement": "penetration of blood-brain barrier (BBB)", "setting": "[3]", "result": "easily penetrate"},
      {"measurement": "penetration of blood-spinal cord barrier (BSCB)", "setting": "[3]", "result": "easily penetrate"}
    ]}
  ]
}
